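A five-concentration, 48-hour dose response in 96-well plates underlies each endpoint, interpolated linearly between surrounding concentrations. Here, GI50 denotes the concentration required for 50% inhibition of growth. TGI marks complete inhibition of growth.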
Experiments:
Experiment in all cases: NCI tumour cell line growth inhibition, 48 h
786-0 renal = system: 786-0 renal
ACHN renal = system: ACHN renal
HOP-92 NSCLC = system: HOP-92 NSCLC
NCI-H226 lung = system: NCI-H226 lung
NCI-H23 lung = system: NCI-H23 lung
RPMI-8226 leukemia = system: RPMI-8226 leukemia
RXF 393 renal = system: RXF 393 renal
SF-268 CNS = system: SF-268 CNS
U251 CNS = system: U251 CNS
K-562 leukemia = system: K-562 leukemia

Compound: Cc1ccc(S(=O)(=O)N(C)C)cc1[N+](=O)[O-]
- GI50 (786-0 renal): > 100 µM
- TGI (786-0 renal): > 100 µM
- GI50 (ACHN renal): > 100 µM
- TGI (ACHN renal): > 100 µM
- GI50 (HOP-92 NSCLC): > 100 µM
- TGI (HOP-92 NSCLC): > 100 µM
- GI50 (NCI-H226 lung): > 100 µM
- TGI (NCI-H226 lung): > 100 µM
- GI50 (NCI-H23 lung): > 100 µM
- TGI (NCI-H23 lung): > 100 µM
- GI50 (RPMI-8226 leukemia): > 100 µM
- TGI (RPMI-8226 leukemia): > 100 µM
- GI50 (RXF 393 renal): > 100 µM
- TGI (RXF 393 renal): > 100 µM
- GI50 (SF-268 CNS): > 100 µM
- TGI (SF-268 CNS): > 100 µM
- GI50 (U251 CNS): > 100 µM
- TGI (U251 CNS): > 100 µM

Compound: Nc1nc2ncn(CCO)c2c(=O)[nH]1
- TGI (786-0 renal): > 100 µM
- TGI (ACHN renal): > 100 µM
- TGI (HOP-92 NSCLC): > 100 µM
- TGI (NCI-H226 lung): > 100 µM
- TGI (NCI-H23 lung): > 100 µM
- TGI (RPMI-8226 leukemia): > 100 µM
- TGI (RXF 393 renal): > 100 µM
- TGI (SF-268 CNS): > 100 µM
- TGI (U251 CNS): > 100 µM

Compound: CN(C)CCC1(C2=CCCC2)CC/C(=C\c2ccc3c(c2)OCO3)C1=O (centres undefined)
- TGI (786-0 renal): 26.9 µM
- TGI (ACHN renal): 29.6 µM
- TGI (HOP-92 NSCLC): 24.4 µM
- TGI (K-562 leukemia): 32 µM
- TGI (NCI-H23 lung): 33 µM
- TGI (RPMI-8226 leukemia): 73.9 µM
- TGI (RXF 393 renal): 21.3 µM
- TGI (SF-268 CNS): 28.1 µM
- TGI (U251 CNS): 29 µM

Compound: Cc1oc2ccccc2c(=O)c1Cn1nnc2ccccc21
- TGI (786-0 renal): > 100 µM
- TGI (ACHN renal): > 100 µM
- TGI (HOP-92 NSCLC): 87.4 µM
- TGI (K-562 leukemia): > 100 µM
- TGI (NCI-H226 lung): > 100 µM
- TGI (NCI-H23 lung): > 100 µM
- TGI (RPMI-8226 leukemia): > 100 µM
- TGI (SF-268 CNS): > 100 µM
- TGI (U251 CNS): > 100 µM

Compound: CN(C)CCNC(=O)c1ccc2ccc3cccnc3c2n1
- TGI (786-0 renal): > 100 µM
- TGI (ACHN renal): 97.3 µM
- TGI (HOP-92 NSCLC): 65.2 µM
- TGI (K-562 leukemia): > 100 µM
- TGI (NCI-H226 lung): 39.6 µM
- TGI (NCI-H23 lung): 42.2 µM
- TGI (RXF 393 renal): 27.3 µM
- TGI (SF-268 CNS): 54.5 µM
- TGI (U251 CNS): > 88.8 µM

Compound: O=c1cc2n(c(=O)[nH]1)C1OC(C(O)C1O)[C@@H]2CCO (some centres undefined)
- TGI (786-0 renal): > 100 µM
- TGI (ACHN renal): > 100 µM
- TGI (HOP-92 NSCLC): > 100 µM
- TGI (K-562 leukemia): > 100 µM
- TGI (NCI-H23 lung): > 100 µM
- TGI (RXF 393 renal): > 100 µM
- TGI (SF-268 CNS): > 100 µM
- TGI (U251 CNS): > 100 µM

Compound: O=CC1=CCCC2(C1)OCCO2
- TGI (786-0 renal): > 100 µM
- TGI (HOP-92 NSCLC): > 100 µM
- TGI (K-562 leukemia): > 100 µM
- TGI (NCI-H23 lung): > 100 µM
- TGI (RPMI-8226 leukemia): > 100 µM
- TGI (RXF 393 renal): > 100 µM
- TGI (SF-268 CNS): > 100 µM
- TGI (U251 CNS): > 100 µM

Compound: CC1=CC[C@@H]2[C@@H](CC[C@@]2(C)O)C(C)(C)[C@H]1CC[C@@H]1[C@@]2(C)CCC(=O)C(C)(C)O[C@@H]2CC[C@]1(C)O
- TGI (786-0 renal): 59.6 µM
- TGI (ACHN renal): 42.4 µM
- TGI (NCI-H226 lung): 63.5 µM
- TGI (NCI-H23 lung): > 100 µM
- TGI (RPMI-8226 leukemia): 51.1 µM
- TGI (SF-268 CNS): > 100 µM
- TGI (U251 CNS): > 100 µM

Compound: O=c1/c(=C/c2cccc3ccccc23)sc2nc3ccccc3n12
- TGI (786-0 renal): > 100 µM
- TGI (ACHN renal): > 100 µM
- TGI (HOP-92 NSCLC): > 100 µM
- TGI (K-562 leukemia): > 100 µM
- TGI (NCI-H226 lung): > 100 µM
- TGI (NCI-H23 lung): > 100 µM
- TGI (RXF 393 renal): > 100 µM
- TGI (SF-268 CNS): > 100 µM
- TGI (U251 CNS): > 100 µM

Compound: N=C(N)/N=C(/C=C/c1ccccc1)CC1OC(=O)c2ccccc21 (centres undefined)
- TGI (786-0 renal): > 100 µM
- TGI (ACHN renal): > 100 µM
- TGI (K-562 leukemia): > 100 µM
- TGI (NCI-H226 lung): > 100 µM
- TGI (RPMI-8226 leukemia): > 100 µM
- TGI (RXF 393 renal): > 100 µM
- TGI (SF-268 CNS): > 100 µM
- TGI (U251 CNS): > 100 µM

Compound: COc1ccc(CC(=O)c2cc(OC)c(OC)cc2C)cc1OC
- TGI (786-0 renal): > 100 µM
- TGI (ACHN renal): > 100 µM
- TGI (K-562 leukemia): > 100 µM
- TGI (NCI-H23 lung): > 100 µM
- TGI (RPMI-8226 leukemia): > 100 µM
- TGI (SF-268 CNS): > 100 µM
- TGI (U251 CNS): > 100 µM

Compound: N#C/C(=C\c1ccc(CP(=O)(O)O)cc1)C(N)=O
- TGI (786-0 renal): > 100 µM
- TGI (ACHN renal): > 100 µM
- TGI (HOP-92 NSCLC): > 100 µM
- TGI (K-562 leukemia): > 100 µM
- TGI (NCI-H226 lung): > 100 µM
- TGI (NCI-H23 lung): > 100 µM
- TGI (RPMI-8226 leukemia): > 100 µM
- TGI (SF-268 CNS): > 100 µM
- TGI (U251 CNS): > 100 µM

Compound: CCCCCCC1CCC2CCCC(C)N12 (centres undefined)
- TGI (786-0 renal): > 100 µM
- TGI (ACHN renal): > 100 µM
- TGI (HOP-92 NSCLC): > 100 µM
- TGI (K-562 leukemia): 35.3 µM
- TGI (NCI-H226 lung): > 100 µM
- TGI (NCI-H23 lung): 97.4 µM
- TGI (RPMI-8226 leukemia): 53.9 µM
- TGI (SF-268 CNS): > 100 µM
- TGI (U251 CNS): > 100 µM
